Measurements: PMC11459959, “Discovery of new acetamide derivatives of 5-indole-1,3,4-oxadiazol-2-thiol as inhibitors of HIV-1 Tat-mediated viral transcription” (Antimicrobial Agents and Chemotherapy, 2024)

How the values were obtained:
[1] = test system: Tat-mediated LTR transcription; assay: Dual-reporter assay, F-Luc (Tat-mediated LTR transcription) in bl-DTR cells; type: cell-based, HIV-1; conditions: Human immunodeficiency virus 1, 24 h, read-out: IC50 of F-Luc (Tat)
Procedure: Fig 1 (A) (Top panel) Schematic representation of the primary compound screening using a dual-reporter system. […] (B). […] (Top graphs) bl-DTR cells (1 × 10^4) were treated with twofold serial dilutions of each compound before doxycycline (Dox) addition (final concentration, 50 ng/mL). After 24 h of treatment, the activities of firefly luciferase (F-Luc, red line) and Renilla luciferase (R-Luc, blue line) were determined using the Dual-Glo Luciferase assay system. (Bottom graphs) TZM-bl cells were treated with each indicated compound and subsequently infected with the HIV-1NL4-3 strain at a multiplicity of infection (MOI) of 1. At 48 h after infection, the viral infectivity (purple line) and cell viability (green line) were determined using the Bright-Glo luciferase assay kit and the PrestoBlue Cell Viability Reagent, respectively. […] (C). […] The targeted moieties for the SAR study are marked with dotted-circle lines.
The Tzm-bl-derived dual Tat reporter; TZM-bl/Tat/Rluc (bl-DTR) cells were established from TZM-bl cells using two Dox-inducible lentiviral expression cassettes cloned with Flag-tagged Tat86 and the R-Luc gene, as described in our previous study ([11]). TZM-bl, A3.01, J1.1, and J-Lat 6.3 cells as well as the HIV-1 molecular clone pNL4-3, pNL(AD8), ARV-resistant HIV-1 strains, and HIV-1NL43-IRES-eGFP (pBR43IeG-nef^+, gifted by Dr. Frank Kirchhoff) ([52]) were provided by the National Institute of Health HIV Reagent Program (NIH, Bethesda, MD, USA). HeLa (CCL-2) and 293T (CRL-3216) cell lines were purchased from the American Type Culture Collection (ATCC, Manassas, VA, USA). The bl-DTR, TZM-bl, HeLa, and 293T cells were cultured in Dulbecco’s modified Eagle’s medium supplemented with 1% penicillin–streptomycin and 10% (vol/vol) heat-inactivated fetal bovine serum (all from Gibco-BRL, Gaithersburg, MD, USA), and 1 µg/mL of puromycin and 200 µg/mL of zeocin were additionally supplemented for the bl-DTR cells. PBMCs were purchased from AllCells (Alameda, CA, USA) and cultured as previously described ([12]). The information on ARV-resistant HIV-1 strains was described in previous reports as follows: NNRTI-resistant 12241 and 12243 ([53]); NRTI-resistant 7396, 7406, and 7407 ([54]); INSTI-resistant 11847 and 11849 ([55], [56]); and PI-resistant 11800 and 11803 ([57]). Each molecular HIV-1 clone was transfected to 293T cells, as previously described ([58]), to obtain infectious HIV-1 particles. Virus-containing cell culture supernatants were collected 3 days after transfection, and filtered through a 0.45-µm membrane filter (Millipore Sigma, Burlington, MA, USA) to remove cell debris. The viral titration was performed as described previously ([59]) with some minor modifications. In brief, 1 × 10^4 TZM-bl cells seeded in 96-well plates were infected with 200 µL of virus-containing medium diluted serially twofold. The incubation was for 2 days and the experiment was performed in triplicate; the infection time minimized the virus spread ([59]). The titration of the infectious viral particles was performed with a ß-Gal staining assay using the ßeta-Galactosidase Staining Kit (Mirus Bio, Madison, WI, USA) following the manufacturer’s protocols. In brief, the infected cells were washed with phosphate-buffered saline (PBS) and fixed using a Cell Fixative Working solution. The cells were washed with PBS and stained using the Cell Staining Working Solution containing X-gal. The infected blue-colored cells were counted under a microscope (100× magnification). The infectious virus titer was determined as a mean value of blue-colored cells count × dilution factor and used for determining the multiplicity of infection (MOI) in each infection experiment.

Tat protein = assay: Nuclear localization of Tat protein, cell fractionation and western blotting; type: cell-based, HIV-1; conditions: 1.5 μM, transfected cells

SMILES: CC(C)[C@]12O[C@H]1[C@@H]1O[C@]13[C@]1(O[C@H]1C[C@H]1C4=C(CC[C@@]13C)C(=O)OC4)[C@@H]2O [triptolide, reference compound]
- IC50 [1]: 0.82 ± 0.02 nM

SMILES: Cc1[nH]c2ccc(-c3nnc(SCC(=O)N4CCCCC4)o3)cc2c1C [Compound 9, 2-((5-(2,3-Dimethyl-1H-indol-5-yl)-1,3,4-oxadiazol-2-yl)thio)-1-(piperidin-1-yl)ethan-1-one]
- IC50 [1]: 140 nM
- change in nuclear localization of the Tat protein (Tat protein): no changes were observed

SMILES: Cc1[nH]c2ccc(-c3nnc(SCC(=O)N4CCCC4)o3)cc2c1C [Compound 13, 2-((5-(2,3-Dimethyl-1H-indol-5-yl)-1,3,4-oxadiazol-2-yl)thio)-1-(pyrrolidin-1-yl)ethan-1-one]
- IC50 [1]: 300 ± 30 nM
- change in nuclear localization of the Tat protein (Tat protein): no changes were observed
